Experimental data published in the CheMixHub ionic liquid set.
± gives the uncertainty stated by the source.

Assay: xn = mol fraction of the nth substance listed

C[N+](C)(C)CCO.NCC(=O)[O-] + CO
viscosity [mPa·s], 100 kPa
Conditions	x1 = 0.1002	x1 = 0.2001	x1 = 0.2997	x1 = 0.4004	x1 = 0.4994	x1 = 0.6	x1 = 0.6997	x1 = 0.8001	x1 = 0.9	x1 = 1
298.15 K	2.3 ± 0.6	6.55 ± 0.6	15.49 ± 0.83	34.55 ± 0.96	64.1 ± 1.4	108.4 ± 3.4	170.2 ± 7.7	260 ± 15	369 ± 26	501 ± 41
303.15 K	2.08 ± 0.6	5.72 ± 0.6	13.06 ± 0.82	28.31 ± 0.91	50.8 ± 1.1	84 ± 2.1	128.3 ± 4.7	193.9 ± 9.7	269 ± 16	363 ± 26
308.15 K	1.89 ± 0.6	5.03 ± 0.6	11.1 ± 0.81	23.47 ± 0.87	40.9 ± 1.1	66.3 ± 1.5	99.9 ± 3	146.7 ± 6.1	201 ± 11	264 ± 16
313.15 K	1.73 ± 0.6	4.47 ± 0.6	9.55 ± 0.61	19.74 ± 0.85	33.58 ± 0.98	53.4 ± 1.2	78.9 ± 2	111.5 ± 3.8	153.5 ± 6.8	201 ± 11
318.15 K	1.58 ± 0.6	3.98 ± 0.6	8.28 ± 0.61	16.74 ± 0.84	27.95 ± 0.93	45.2 ± 1.2	62.8 ± 1.5	89.7 ± 2.6	118.8 ± 4.4	154.5 ± 7
323.15 K	1.46 ± 0.6	3.57 ± 0.6	7.27 ± 0.61	14.32 ± 0.83	23.49 ± 0.89	37.8 ± 1.1	51.2 ± 1.3	71.9 ± 1.9	94.3 ± 3	121.1 ± 4.7

C[N+](C)(CCCS(=O)(=O)O)C1CCCCC1.Cc1ccc(S(=O)(=O)[O-])cc1 + CO
viscosity [mPa·s], 101 kPa
Conditions	303.15 K	308.15 K	313.15 K	318.15 K	323.15 K	328.15 K
x1 = 0.01863	0.9656	0.8903	0.8173	0.7622	0.7053	0.6527
x1 = 0.04828	2.131	1.956	1.779	1.61	1.487	1.37
x1 = 0.1023	7.675	6.646	5.931	5.247	4.648	4.072
x1 = 0.2332	82.39	66.75	52.34	42.16	34.08	28.69
x1 = 1	113700	56930	32650	17830	10190	6293
